For 8 compounds, EC50 and TOX-HELA_EC50 results are on record in patent publication US9321767B2, “Azabenzimidazoles as respiratory syncytial virus antiviral agents” (JANSSEN SCIENCES IRELAND UC, priority 2010, dated 2016).

The test system of one data set is rgRSV224 virus. Nature of the data set: microbe, parasite or virus in culture. The class given is cell-based, respiratory syncytial virus (RSV). The note with it: human respiratory syncytial virus, HeLa, 72 h, read-out: RSV-wt_EC50. As for the experimental part:
(§1) Black 96-well clear-bottom microtiter plates (Corning, Amsterdam, The Netherlands) were filled in duplicate using a customized robot system with serial 4-fold dilutions of compound in a final volume of 50 μl culture medium [RPMI medium without phenol red, 10% FBS, 0.04% gentamycin (50 mg/mL) and 0.5% DMSO]. Then, 100 μl of a HeLa cell suspension (5×10^4 cells/mL) in culture medium was added to each well followed by the addition of 50 μl rgRSV224 (MOI=0.02) virus in culture medium using a multidrop dispenser (Thermo Scientific, Erembodegem, Belgium). rgRSV224 virus is an engineered virus that includes an additional GFP gene (Hallak et al, 2000) and was in-licensed from the NIH (Bethesda, Md., USA). Medium, virus- and mock-infected controls were included in each test. Cells were incubated at 37° C. in a 5% CO2 atmosphere. Three days post-virus exposure, viral replication was quantified by measuring GFP expression in the cells by a MSM laser microscope (Tibotec, Beerse, Belgium). The EC50 was defined as the 50% inhibitory concentration for GFP expression. In parallel, compounds were incubated for three days in a set of white 96-well microtitier plates (Corning) and the cytotoxicity of compounds in HeLa cells was determined by measuring the ATP content of the cells using the ATPlite kit (PerkinElmer, Zaventem, Belgium) according to the manufacturer's instructions. The CC50 was defined as the 50% concentration for cytotoxicity.

Another data set concerns HeLa cells. Nature of the data set: Cytotoxicity in HeLa cells, ATP content (ATPlite kit). The class given is cell-based. The note with it: HeLa cells, three days incubation, ATP content. As for the experimental part:
as §1
(In general: ATP-based viability assays read luminescence as a measure of living cells.)

Consider `CC(C)CCn1c(Cn2c(=O)n(C3COC3)c3ccncc32)nc2nc(Cl)ccc21` [Compound 2, 3-((5-chloro-1-isopentyl-1H-imidazo[4,5-b]pyridin-2-yl)methyl)-1-(oxetan-3-yl)-1H-imidazo[4,5-c]pyridin-2(3H)-one], for which the EC50 with rgRSV224 virus worked out at 1.58 nM. Also, in the data set on HeLa cells, the TOX-HELA_EC50 was over 9.836 µM.

With `CC(C)CCn1c(Cn2c(=O)n(C3CC3)c3ccncc32)nc2cccnc21` [Compound 24, 1-cyclopropyl-3-((3-isopentyl-3H-imidazo[4,5-b]pyridin-2-yl)methyl)-1H-imidazo[4,5-c]pyridin-2(3H)-one], the EC50 in the data set on rgRSV224 virus amounted to 1220 nM. In addition, the TOX-HELA_EC50 in the data set with HeLa cells is over 98.3603 µM.

`CC(C)CCn1c(Cn2c(=O)n(C3CC3)c3ccncc32)nc2nc(Cl)ccc21` [Compound 1, 3-((5-chloro-1-isopentyl-1H-imidazo[4,5-b]pyridin-2-yl)methyl)-1-cyclopropyl-1H-imidazo[4,5-c]pyridin-2(3H)-one]: the EC50 in the data set on rgRSV224 virus turned out to be 0.365 nM. This compound also came in with a TOX-HELA_EC50 with HeLa cells of over 9.836 µM.

With `CC(C)CCn1c(Cn2c(=O)n(C3COC3)c3ccncc32)nc2cnccc21` [Compound 36], the EC50 with rgRSV224 virus came to 94.9 nM. This compound also gave a TOX-HELA_EC50 with HeLa cells of over 9.836 µM.

For `CC(C)CCn1c(Cn2c(=O)n(C3CC3)c3ccccc32)nc2ncccc21` [Compound 4, 1-cyclopropyl-3-((1-isopentyl-1H-imidazo[4,5-b]pyridin-2-yl)methyl)-1H-benzo[d]imidazol-2(3H)-one], the EC50 with rgRSV224 virus came to 7.08 nM. The TOX-HELA_EC50 with HeLa cells is over 9.836 µM.

For the compound `O=c1n(Cc2nc3nc(Cl)ccc3n2CCCC(F)(F)F)c2cnccc2n1C1CC1` [Compound 39, 3-((5-chloro-1-(4,4,4-trifluorobutyl)-1H-imidazo[4,5-b]pyridin-2-yl)methyl)-1-cyclopropyl-1H-imidazo[4,5-c]pyridin-2(3H)-one], in the data set with rgRSV224 virus, the EC50 was determined as 0.96 nM. The compound also showed a TOX-HELA_EC50 in the data set on HeLa cells of over 98.3603 µM.

Take `CS(=O)(=O)CCCn1c(Cn2c(=O)n(C3CC3)c3ccncc32)nc2ncccc21` [Compound 7, 1-cyclopropyl-3-((1-(3-(methylsulfonyl)propyl)-1H-imidazo[4,5-b]pyridin-2-yl)methyl)-1H-imidazo[4,5-c]pyridin-2(3H)-one]: the EC50 with rgRSV224 virus was 13.7 nM. In the data set on HeLa cells, this compound came in with a TOX-HELA_EC50 of over 9.836 µM.

Regarding `O=c1n(Cc2nc3cc(Cl)cnc3n2CCCCO)c2cnccc2n1C1CC1` [Compound 21, 3-((6-chloro-3-(4-hydroxybutyl)-3H-imidazo[4,5-b]pyridin-2-yl)methyl)-1-cyclopropyl-1H-imidazo[4,5-c]pyridin-2(3H)-one], the EC50 in the data set on rgRSV224 virus turned out to be 54.6 nM. Also, in the data set with HeLa cells, the TOX-HELA_EC50 was over 9.836 µM.
